17 substances from US20110039763A1, “TARGETED ANTIMICROBIAL MOIETIES” (C3 JIAN, INC., priority 2009, published 2011) can be followed below.

“Also recorded” adds a separate entry of the source.

The subject of the assay is microorganisms. Put plainly: Targeting peptide binding to target microorganisms (Tables 3, 10, 12). As to conditions: peptide binding in aqueous buffers that varied with peptide solubility; preferably 1x PBS. An excerpt:
In certain embodiments, the targeting moiety comprises one or more targeting peptides that bind particular bacteria, fungi, and/or yeasts, and/or algae, and/or viruses and/or that bind particular groups of bacteria, and/or groups of fungi, and/or groups of yeasts, and/or groups of algae.
In certain embodiments the targeting peptides include peptides comprising or consisting of one or more of the amino acid sequences shown in Table 3 (SEQ ID NOs:13-1566). In various embodiments the peptides include peptides comprising or consisting of the retro, inverso, retro-inverso, and/or beta form of one or more of the amino acid sequences shown in Table 3. Also contemplated are circular permutations of these sequences as well as peptides comprising or consisting of the retro, inverso, retro-inverso, and/or beta form of such circular permutations.
In certain embodiments the targeting peptide can comprise one or more domains capable of binding, specifically binding, or preferentially binding to a microorganism, e.g., a target microbial organism (see, e.g., Table 3). In certain embodiment, the targeting peptide be identified via screening peptide libraries. For example, a phage display peptide library can be screened against a target microbial organism or a desired antigen or epitope thereof. Any peptide identified through such screening can be used as a targeting peptide for the target microbial organism.

As to “1T-42 (TVLDWLSLALATGLFVYLLVALLRADRA; Peptide with targeting and/or antimicrobial activity)”, the “Target(s) (microorganism bound by the targeting peptide)” value is recorded as “S. aureus; also recorded: S. epidermidis; also recorded: C. xerosis; also recorded: C. striatum; also recorded: P. aeruginosa”. In the case of “1T-43 (DRCLSVLSWSPPKVSPLI; Peptide with targeting and/or antimicrobial activity)” it was “C. jeikium; also recorded: P. aeruginosa”. In the case of “1T-44 (DPALADFAAGMRAQVRT; Peptide with targeting and/or antimicrobial activity)” it was “S. mutans; also recorded: S. aureus; also recorded: S. epidermidis; also recorded: C. jeikeium; also recorded: C. striatum; also recorded: P. aeruginosa”; in that of “1T-45 (WTKPSFTDLRLGFEVTLYFANR; Peptide with targeting and/or antimicrobial activity)”, “S. aureus; also recorded: S. epidermidis; also recorded: C. striatum; also recorded: P. aeruginosa”.

As for “1T-46 (FSFKQRVMFRKEVERLR; Peptide with targeting and/or antimicrobial activity)”, the “Target(s) (microorganism bound by the targeting peptide)” value is “S. aureus; also recorded: S. epidermidis; also recorded: C. jeikeium; also recorded: C. xerosis; also recorded: C. striatum; also recorded: P. aeruginosa”.

With “1T-47 (VIKISVPGQVQMLIP; Peptide with targeting and/or antimicrobial activity)”, the “Target(s) (microorganism bound by the targeting peptide)” value is reported as “S. mutans; also recorded: S. epidermidis; also recorded: P. aeruginosa”. In the case of “1T-48 (KLQVHHGRATHTLLLQPPLCAPGTIR; Peptide with targeting and/or antimicrobial activity)” it was “S. aureus; also recorded: S. epidermidis; also recorded: C. jeikeium; also recorded: C. xerosis; also recorded: C. striatum; also recorded: P. aeruginosa”; in that of “1T-49 (SLVRIHDQQPWVTRGAFIDAARTCS; Peptide with targeting and/or antimicrobial activity)”, “S. aureus; also recorded: S. epidermidis; also recorded: C. jeikeium; also recorded: P. aeruginosa”; in that of “1T-50 (HSDEPIPNILFKSDSVH; Peptide with targeting and/or antimicrobial activity)”, “P. aeruginosa”. In the case of “1T-51 (GKPKRMPAEFIDGYGQALLAGA; Peptide with targeting and/or antimicrobial activity)” it was “S. aureus; also recorded: P. aeruginosa”.

“1T-52 (DEYPAKLPLSDKGATEPRRH; Peptide with targeting and/or antimicrobial activity)”: the “Target(s) (microorganism bound by the targeting peptide)” value is recorded as “S. aureus; also recorded: C. xerosis; also recorded: P. aeruginosa”. In the case of “1T-53 (SDILAEMFEKGELQTLVKDAAAKANA; Peptide with targeting and/or antimicrobial activity)” it was “P. aeruginosa”; in that of “1T-54 (RWVSCNPSWRIQ; Peptide with targeting and/or antimicrobial activity)”, “S. epidermidis; also recorded: C. xerosis; also recorded: C. striatum; also recorded: P. aeruginosa”; in that of “1T-55 (NHKTLKEWKAKWGPEAVESWATLLG; Peptide with targeting and/or antimicrobial activity)”, “C. xerosis; also recorded: P. aeruginosa”. In the case of “1T-56 (LALIGAGIWMIRKG; Peptide with targeting and/or antimicrobial activity)” it was “C. xerosis; also recorded: P. aeruginosa”; in that of “1T-57 (RLEYRRLETQVEENPESGRRPMRG; Peptide with targeting and/or antimicrobial activity)”, “P. aeruginosa”; in that of “1T-58 (CDDLHALERAGKLDALLSA; Peptide with targeting and/or antimicrobial activity)”, “P. aeruginosa”.
